Measured values reported in the supplement of paper PMC11997997.

Legend:
[1] = tested on: Mycobacterium tuberculosis CDC1551 (intracellular, in murine BMDM); experiment: area under intracellular growth-inhibition dose-response curve (AUC (% inhibition x dose, relative)); higher = more potent; details: duration: 6 days; dose range: 0.13-80 uM, 8 points
In short: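 The value is the area under the growth-inhibition dose–response curve, calculated in GraphPad Prism. Primary murine bone marrow-derived macrophages were seeded in 384-well opaque plates and, 24 h later, infected for 1 h with luciferase-expressing M. tuberculosis CDC1551 at multiplicity of infection 1. Cells were then exposed for 6 days to an 8-dose, 2.5-fold series (final 80–0.13 μM). Growth was read with the Bright-Glo luciferin assay and normalised to a reference drug control and to the lowest-concentration wells.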

[2] = tested on: murine bone marrow-derived macrophages; experiment: area under cytotoxicity dose-response curve (AUC (% cytotoxicity x dose, relative)); higher = more cytotoxic; details: duration: 6 days; dose range: 0.13-80 uM, 8 points
In short: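 Values are the area under the cytotoxicity dose–response curve, calculated with GraphPad Prism version 10. Primary murine bone marrow-derived macrophages were exposed to final concentrations of 80–0.13 μM for 6 days, and viability was read by CellTiter-Glo luminescence with normalisation to vehicle and positive control wells.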

Row | Compound | area under intracellular growth-inhibition dose-response curve [1] | area under cytotoxicity dose-response curve [2]
1 | COc1ccc(S(=O)(=O)N2CCN(C(=O)C3CC(=O)N(c4ccccc4F)C3)CC2)cc1OC (centres undefined) | 104 | 27.9
2 | NS(=O)(=O)c1ccc(NC(=S)Nc2ccc(OCc3ccccc3)cc2)cc1 | 244 | < 0
3 | CC(=O)c1cccc(NC(=O)NC2CCCCCCC2)c1 | 244 | 36.2
4 | O=C(NCC1CC1)c1cc([N+](=O)[O-])cc([N+](=O)[O-])c1 | 202 | 36.7
5 | CCn1nc(C(=O)Nc2cccc(S(=O)(=O)N3CCCC3)c2)c2ccccc2c1=O | 55.2 | 101
6 | CCCc1nnc(NC(=S)Nc2ccccc2)s1 | 213 | < 0
7 | NC(=S)N/N=C/c1ccc(-c2cc(Cl)ccc2Cl)o1 | 247 | 33.2
8 | CC(=O)c1cc(NC(=O)c2cccc(C(F)(F)F)c2)c(=O)oc1/C=C/N(C)C | 194 | 64.4
9 | COc1cc(/C=N/NC(N)=S)ccc1OC(=O)c1ccc(C)cc1 | 264 | 23.5
10 | O=C(NC1CCCCC1)c1ccc([N+](=O)[O-])cc1 | 218 | 15.6
11 | COC(=O)Cc1ccc(NC(=S)Nc2ccc(N3CCOCC3)cc2)cc1 | 241 | 50.5
12 | COc1ccc(Cc2nnc(-c3ccccc3)o2)cc1 | 243 | 28.8
13 | NC(=S)NN=C1Cc2cccc3cccc1c23 | 263 | 58.9
14 | COc1cc(/C=N/NC(=O)C23CC4CC(CC(C4)C2)C3)cc(Br)c1O | 154 | 23.8
15 | CCOC(=O)c1c(-c2ccccc2)oc2ccc(O)c(CN3CCCC3)c12 | 278 | < 0
16 | O=C(N/N=C/c1cccn1-c1ccccc1)c1ccncc1 | 251 | 57.4
17 | COc1cc(OC)c([N+](=O)[O-])cc1/C=N/NC(=O)c1ccncc1 | 242 | 19
18 | O=[N+]([O-])c1[c][c]c(Sc2[c][c][c][c][n+]2[O-])c2nonc12 | 48.7 | 119
19 | Cc1ccc(C2=NN(C(=O)CCl)C(c3cccs3)C2)o1 (centres undefined) | 105 | 25.9
20 | Cc1cc(C)n(CC(=O)NC2C(=O)N3C(C(=O)O)=C(CSc4nnc(C)s4)CSC23)n1 (centres undefined) | 122 | 11.2
21 | CN(C)c1ccc(O)c2c1CC1CC3[C@@H](N(C)C)C(=O)C(C(N)=O)=C(O)[C@]3(O)C(=O)C1=C2O.Cl (some centres undefined) | 246 | 112

Row | Compound | area under intracellular growth-inhibition dose-response curve [1] | area under cytotoxicity dose-response curve [2]
22 | O=C(NCc1cccs1)c1ccc(Cl)s1 | 212 | 2.8
23 | CCOc1ccc(-n2cc(-c3ccc(OC)c(OC)c3)nc2S)cc1 | 210 | 81.6
24 | COc1ccc(OCCCC(=O)NNC(=O)c2ccncc2)cc1 | 227 | 6.62
25 | O=C(Nc1ccc([N+](=O)[O-])cc1Cl)c1cc(Cl)ccc1O | 151 | 108
26 | C/C(Cn1nnc([N+](=O)[O-])n1)=N\NC(=O)c1ccncc1 | 271 | < 0
27 | CC(=O)c1c(C)[n+]([O-])c2ccccc2[n+]1[O-] | 84.7 | 17.5
28 | CCC(=O)N1CCN(c2ccc(NC(=O)c3ccc([N+](=O)[O-])o3)cc2Cl)CC1 | 58.5 | 30.3
29 | COc1cc(/C=N\NC(=O)c2sc(N)nc2C)cc(OC)c1OC | 35.1 | 140
30 | Cc1nc(N)nc(N)c1/C=C/C(C)(C)c1ccc(Cl)cc1.Cl | 230 | 5.71
31 | O=C(O)c1nc(O)nc(O)c1F | 174 | < 0
32 | CCCCN(C(=O)c1ccco1)c1c(N)n(CCC)c(=O)[nH]c1=O | < 0 | 53.6
33 | CCCCCCn1c(=O)c(C(=O)Nc2cnccn2)c(O)c2ccccc21 | 56.4 | < 0
34 | O=C(COc1ccc(Cl)cc1)NNC(=O)c1ccncc1 | 274 | 9.09
35 | Cc1[nH]c2ccccc2c1/C=N/NC(N)=S | 131 | 102
36 | O=C(NNC(=O)C1CCCC1)c1cc([N+](=O)[O-])cc([N+](=O)[O-])c1 | 109 | 12.3
37 | CCCCN1CNC(=S)N(c2ccc(C(=O)OCC)cc2)C1 | 270 | < 0
38 | O=C(CCN1C(=O)S/C(=C\c2ccc(F)cc2)C1=O)Nc1ccc(C(=O)O)c(O)c1 | 120 | 11.3
39 | CCC(=O)NC(=S)Nc1ccc(NC(=S)NC(=O)c2ccccc2)cc1 | 263 | 48.6
40 | CC(C)(C)c1nnc(NC(=S)Nc2ccccc2)s1 | 258 | < 0
41 | CC1CCC/C(=N\NC(=O)c2ccncc2)C1 (centres undefined) | 186 | 70.8
42 | COc1ccc(C(=O)Oc2cccc(/C=N/NC(N)=S)c2)cc1 | 145 | 65

Row | Compound | area under intracellular growth-inhibition dose-response curve [1] | area under cytotoxicity dose-response curve [2]
43 | Cn1c(/C=C/c2ccc([N+](=O)[O-])o2)nc2ccccc2c1=O | 85.8 | 53.2
44 | CC1CCN(C(=O)COc2ccccc2F)CC1 | 214 | 50.5
45 | CCc1nnc(NS(=O)(=O)c2ccc(N/C=C3/C(=O)NC(=O)N(c4ccccc4)C3=O)cc2)s1 | 31 | 38
46 | O=[N+]([O-])c1ccc(CN2CCN(c3ccc(F)cc3)CC2)o1 | 245 | < 0
47 | CCc1ccc(C(=O)/C=C/c2ccc([N+](=O)[O-])o2)cc1 | 142 | 5.66
48 | O=C(Nc1ccn(Cc2ccccc2)n1)c1ccc2c(c1)OCO2 | 121 | 62.2
49 | O=C(N/N=C/c1coc2ccccc2c1=O)c1ccncc1 | 272 | < 0
50 | CCCn1c(-c2cccs2)nc2ccccc21 | 103 | < 0
51 | C/C(=N\NC(=O)c1ccncc1)c1cccc(NC(=O)c2ccc(C(C)(C)C)cc2)c1 | 264 | 47.8
52 | CCOC(=O)c1c(NC(=O)CN2C(=O)N(C)C3(CCCCC3)C2=O)sc(C(=O)N(C)C)c1C | 65 | 38.6
53 | Cc1ccc(C(=O)N2CCN(c3ccc(NC(=S)NC(=O)c4cccs4)cc3)CC2)cc1 | 275 | < 0
54 | CC(NC(=O)c1ccc(F)cc1)c1ccc(F)cc1 (centres undefined) | 230 | 31.2
55 | O=C(C=Cc1cccs1)c1ccc(Cl)s1 | 235 | 8.27
56 | Cc1cc(NS(=O)(=O)c2ccc(NC(=S)Nc3ccc(Cl)cc3C)cc2)no1 | 102 | 7.59
57 | c1ccc(-c2noc(CC3CCCCC3)n2)nc1 | 200 | 5.13
58 | CC(C)(C)C(=O)N1CCN(c2ccc(NC(=O)c3ccc([N+](=O)[O-])o3)cc2)CC1 | 105 | 104
59 | O=C(NC1CCCC1)c1ccc(Br)s1 | 220 | 54.8
60 | O=C(N/N=C/c1c(F)c(F)c(F)c(F)c1F)c1ccc(Cn2cc(Br)cn2)o1 | 154 | < 0
61 | O=C(N/N=C/c1ccc(Sc2nc3ccccc3[nH]2)o1)c1ccncc1 | 269 | 34.4
62 | O=C(N/N=C/c1ccccc1C(=O)O)c1ccncc1 | 266 | 37.2
